For the experiment, the system named is CEM cells HIV-1 protection, formazan growth assay. The experiment is described as follows: NCI AIDS Antiviral Assay. As to conditions: for IC50: measured here: growth of uninfected CEM cells. The procedure, abridged:
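Steps: treat uninfected and HIV-1-infected human CEM cells at five drug levels; quantify growth by soluble formazan; retest any compound reaching 50% protection; classify actives from the retest.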

The results in this text go back to PubChem BioAssay AID179 (DTP/NCI, 2004).

Activity calls are given as the source filed them.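 The calls were made as follows: active = compounds giving half or more protection of infected cells from virus-caused growth loss, again on retest; inactive = the rest.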

As for `C[C@@H](Br)[C@@H]1CC[C@H]2c3[nH]c4ccccc4c3CCN2C1`, the EC50 was over 200 µM and the IC50 turned out to be 17.4 µM.

`COc1ccc(C(=O)O[C@H]2[C@@H]3C=CO[C@@H](OC4OC(CO)C(O)C(O)C4O)[C@@H]3[C@@]3(CO)O[C@@H]23)cc1O` (stereo partly specified): the result was inactive. As to `N#CC(C(=O)CCC(=O)Nc1ccc(Cl)c(Cl)c1)c1ccccc1` (stereo unspecified), the EC50 was over 692 µM and the IC50 was over 692 µM.

On to `CO[C@@H]1CCC=C(C=O)O1`, for which the outcome was inactive.

Take `CN(C)N=Nc1ccc(/C=C2/C=Cc3ccccc32)cc1`: the EC50 was over 49 µM and the IC50 is over 49 µM.

On to `CCOC(=O)c1cc2c(OC(C)=O)ccc(OC(C)=O)c2s1`, for which the EC50 is over 2 µM and the IC50 amounted to 0.0794 µM. The matching figures for `COC(=O)/C=C/COCC1C2CCC(=O)C21` (stereo unspecified): over 151 µM and over 151 µM. In the same order, the values of `Cc1ccc(S(=O)(=O)Nc2ccccc2SSc2ccccc2NS(=O)(=O)c2ccc(C)cc2)cc1` are over 200 µM and 4.57 µM.

As for `CCc1cccc(C)c1NC(=O)CCc1n[nH]c(=S)o1`, the EC50 is over 617 µM and the IC50 is over 617 µM. As to `CN1CCCC1CCNc1nc(Nc2ccc(Cl)c(Cl)c2)nc2ccc(Cl)cc12` (stereo unspecified), the EC50 was over 19.1 µM and the IC50 was 3.24 µM. With `CN(C)CCNc1nc(-c2ccc3ccccc3c2)nc2nc[nH]c12`, the EC50 was over 200 µM and the IC50 is 3.8 µM.

As for `O=c1[nH]c(=O)n(C2OC(CO)C(O)C2O)c2ccsc12` (stereo unspecified), the EC50 is over 200 µM and the IC50 is over 200 µM. With `COc1ccc(-c2c3ccccc3c(-c3ccc(OC)cc3)c3ccccc23)cc1`, the EC50 is over 2.69 µM and the IC50 is over 2.69 µM. With `CCOC(=O)C(=O)/C(=C/N1CCNC1=S)C(=O)OCC`, the outcome was inactive. For the compound `O=C(NCCc1c(-c2ccccc2)[nH]c2ccccc12)C(F)(F)F`, the EC50 was over 200 µM and the IC50 was 34.7 µM. In the same order, the values of `COc1cccc(-c2nc(-c3cnccn3)n(C/C=C/c3ccccc3)n2)c1` are 178 µM and over 200 µM.

In the case of `COc1cccc2c1OC(c1ccc(C#N)cc1)C([N+](=O)[O-])=C2` (stereo unspecified), the EC50 is over 200 µM and the half-maximal inhibitory concentration (IC50) was found to be 1.58 µM. In the same order, the values of `Cn1c2c(c3ccccc31)CCN(CCCCN1CCN(c3cccc(Cl)c3)CC1)C2=O` are over 11 µM and over 11 µM. In the same order, the values of `N#C/C=C\c1ccc(C#N)cc1` are over 64.6 µM and over 64.6 µM. The matching figures for `C/C(CC(=O)Nc1ccccc1[N+](=O)[O-])=N\NC(N)=O`: over 468 µM and over 468 µM. For `CC(=O)OC(/C=C/c1ccccc1)=C(OC(C)C)/C1=C(\c2ccccc2)SCCCSC1=O`, the EC50 was over 200 µM and the IC50 is over 200 µM. With `Cc1ccc2[nH]c(=O)c(-c3cnc(=O)[nH]n3)c(O)c2c1`, the EC50 is 3.02 µM and the IC50 is 15.1 µM. With `Cc1ccc2c(c1)C(=O)/C(=C\c1ccc(Cl)cc1)CCS2(=O)=O`, the EC50 is over 200 µM and the half-inhibitory concentration (IC50) worked out at 1.66 µM.

As to `CC(=O)/C(=C/n1ccc(=O)[nH]c1=S)C(=O)Nc1ccccc1`, the EC50 is over 200 µM and the IC50 is over 200 µM.

On to `C/C=C(C)/C=C/CC(C)CCC=C(C)C` (stereo unspecified), for which the EC50 was over 200 µM and the IC50 is 85.1 µM. The matching figures for `N#Cc1c(-c2ccc([N+](=O)[O-])cc2)c(C#N)c(=O)n(NS(=O)(=O)c2ccccc2)c1-c1ccccc1`: over 200 µM and 36.3 µM.

With `COc1ccc(/C=C2\SC(=S)N(C=C3C(=O)NC(=S)NC3=O)C2=O)cc1OC`, the EC50 was over 200 µM and the IC50 was found to be 29.5 µM.

`O=c1[nH]nc(-c2ccccc2)n1/N=C/c1c(O)ccc2ccccc12`: the EC50 was over 200 µM and the IC50 was 112 µM. As for `COC(=O)CC1c2ccccc2N2C(=O)Cc3c([nH]c4ccccc34)C12` (stereo unspecified), the EC50 is over 200 µM and the IC50 turned out to be 191 µM.

Take `CC(=O)C1=CC=C/C1=N\Nc1ccccc1`: the EC50 is over 200 µM and the IC50 was 11 µM.

On to `Cc1ccc2c(C3Cc4ccccc4N3C(=O)/C=C\C(=O)O)c(C)[nH]c2c1` (stereo unspecified), for which the EC50 is over 363 µM and the 50% inhibitory concentration (IC50) turned out to be 60.3 µM. In the case of `CC(C(=O)NCNC(=O)c1ccccc1)C(=O)Nc1ccccc1` (stereo unspecified), the result was inactive. On to `O=C1c2ccccc2C(=O)N1CCc1c[nH]c2ccccc12`, for which the EC50 is over 200 µM and the IC50 is over 200 µM. Take `O=c1n(-c2ccccc2)c2nc3ccccc3nc2n1-c1ccc(Cl)c(Cl)c1`: the EC50 is over 61.7 µM and the IC50 is 30.2 µM. As to `O=C(O)CSC(=O)Nc1ccc(N=Nc2ccccc2)cc1`, the result was inactive. As for `O=c1c2c3c(sc2nc2n1N=CN(c1ccccc1)C2)CCCC3`, the EC50 is over 200 µM and the IC50 is over 200 µM. For `Cc1ccc(/C([O-])=C(\C(=S)Nc2cccc(Cl)c2)[n+]2ccccc2)cc1`, the EC50 is over 200 µM and the IC50 is 25.1 µM. In the same order, the values of `COC(=O)c1ccccc1C1CN=NC12Cc1ccc(C)c(C)c1C2=O` (stereo unspecified) are over 200 µM and 37.2 µM. In the same order, the values of `CCCCCCCCC/C=C/C=C/C(=O)NCC(=O)NC1C(O)C(O)C(Nc2ncnc3nc[nH]c23)OC1C(O)CO` (stereo unspecified) are over 43.7 µM and 0.158 µM. For the compound `O=S1(=O)OCCOS(=O)(=O)C1Br`, the EC50 was over 891 µM and the IC50 is 331 µM.

As to `CC1(C)CC(=O)C(Cc2ccccc2)(Cc2ccccc2)C(=O)C1`, the outcome was inactive.

For `C/C(=C\C(=O)Nc1ccc2n[nH]nc2c1)Nc1ccc2n[nH]nc2c1`, the outcome was inactive.

As to `CC1(C2=CCCCC2)CCC(=O)NC1=O` (stereo unspecified), the EC50 is over 200 µM and the IC50 is over 200 µM. Take `O=C1NC(=O)c2c1n(Cc1ccccc1)c(=O)n2Cc1ccccc1`: the EC50 is over 77.6 µM and the IC50 is over 77.6 µM. In the case of `CC(=O)O[C@H]1CC[C@@]2(C)C(=CC[C@H]3[C@@H]4CC[C@H]([C@H](C)C(=O)OCC5OC(n6cc(C)c(=O)[nH]c6=O)CC5N=[N+]=[N-])[C@@]4(C)CC[C@@H]32)C1` (stereo partly specified), the EC50 is over 200 µM and the IC50 amounted to 4.79 µM.

`CCOP(=O)(C/C(=N/NC(C)(C)C)C(=O)Nc1nc2ccc(C)cc2s1)OCC`: the EC50 is over 58.9 µM and the IC50 is over 58.9 µM. On to `OCC1OC(n2cnc3c(SSc4ncnc5c4ncn5C4OC(CO)C(O)C4O)ncnc32)C(O)C1O` (stereo unspecified), for which the EC50 is over 200 µM and the IC50 is over 200 µM. Take `CN=C(NC)N(C)c1nc(=[N+](C)C)ss1`: the outcome was inactive. In the case of `CCOC(=O)[C@]12C(=C(c3ccccc3)O[C@H]3C=CCC[C@H]31)C(=O)C(=O)N2c1ccccc1`, the EC50 was over 200 µM and the IC50 stood at 75.9 µM.

With `CCOc1ccc(N2C(=O)NC3(c4ccccc4)N(C)C(=O)N(C)C23c2ccccc2)cc1` (stereo unspecified), the outcome was inactive. With `CCOc1ncn(-c2ccc(NC(=S)Nc3cnccn3)cc2)n1`, the 50% effective concentration (EC50) is 129 µM and the IC50 is over 200 µM. The matching figures for `CCCCCC(=Nc1n[nH]nc1C(N)=O)OCC`: over 200 µM and over 200 µM.

With `O=[N+]([O-])c1ccc2nsnc2c1`, the EC50 is over 105 µM and the IC50 turned out to be 47.9 µM. As to `SCc1ccc(CS)s1`, the EC50 was over 741 µM and the IC50 is over 741 µM. `Cc1nc2c(=O)n(-c3ccccc3)c3ccccc3c2o1`: the EC50 was over 200 µM and the IC50 came out at 145 µM. The matching figures for `COC(C)(C)C1(O)CCC(C)CC1=O` (stereo unspecified): over 100 µM and over 100 µM. The matching figures for `CN(C)CCC(CCN(C)C)=NO`: over 955 µM and over 955 µM. The matching figures for `CC(=O)c1c(P(=O)(OC(C)C)OC(C)C)nn(-c2ccc([N+](=O)[O-])cc2)c1C`: over 166 µM and over 166 µM. Turning to `CSc1ncnc2nc(C(O)c3ccccc3)[nH]c12` (stereo unspecified), the result was inactive.

With `O=C(C(=O)n1ccc2ccccc21)c1c[nH]c2ccccc12`, the EC50 is over 200 µM and the IC50 was over 200 µM. For the compound `Cc1ccc(/C=C2\Cc3cccc(C)c3C2=O)c(C(=O)O)c1`, the EC50 was over 200 µM and the IC50 was found to be 105 µM.

For `CCCCC(=O)c1c(O)c2ccccc2oc1=O`, the EC50 is over 200 µM and the IC50 was 29.5 µM. Take `COC(=O)C(=O)C(C(=O)C=C(C)C)C(=O)C(=O)Nc1ccc(C)cc1C` (stereo unspecified): the EC50 was over 100 µM and the IC50 was over 100 µM. On to `CCOC(=O)CNC(=O)C(CSSCC(NC(=O)OCc1ccccc1)C(=O)OC)NC(=O)C(NC(=O)OCc1ccccc1)C(C)C` (stereo unspecified), for which the EC50 was over 200 µM and the IC50 was 129 µM. With `CCOC(=O)C1(c2ccccc2)CCN(CC(=O)c2ccccc2)CC1`, the EC50 is over 102 µM and the IC50 is 56.2 µM. The matching figures for `COc1ccc(-c2cc(=O)c3c(O)cc(O)c(-c4cc(-c5cc(=O)c6c(O)cc(OC)cc6o5)ccc4OC)c3o2)cc1`: over 200 µM and 107 µM. In the same order, the values of `CCOC(=O)C(=O)C=P(c1ccccc1)(c1ccccc1)c1ccccc1` are 18.6 µM and 35.5 µM. The matching figures for `Oc1ccc2ccccc2c1C1=NNc2n[nH]c(=S)n2N1`: over 148 µM and 19.1 µM. `C[n+]1cc(C(O)c2ccc3c(c2)OCO3)c2ccccc2c1` (stereo unspecified): the EC50 was over 100 µM and the IC50 amounted to 29.5 µM. As to `CS(=O)(=O)N(CCC#N)c1ccc(/C=N/NC(=O)CC(=O)Nc2cccc(Cl)c2)cc1`, the EC50 is over 204 µM and the IC50 is over 204 µM. Turning to `O=c1[nH]cc(NS(=O)(=O)O)c(=O)[nH]1`, the EC50 is over 200 µM and the 50% inhibitory concentration (IC50) was over 200 µM. With `C/C(=N/NC(=O)C[n+]1ccccc1)C(CN(CC(C)C)CC(C)C)C(=O)Nc1ccc(C)cc1C` (stereo unspecified), the EC50 is over 14.1 µM and the IC50 was over 14.1 µM. `O=C(Nc1cccc(O)c1)C(=O)C1C(=O)NC(=S)NC1=O`: the EC50 is over 813 µM and the IC50 is over 813 µM.

The term EC50 denotes the concentration at which the effect is half-maximal. As a reminder, the IC50 is the concentration that gives 50% inhibition.
